What was measured:
[1] = test system: Botrytis cinerea; assay: Microtiterplate test against grey mold Botrytis cinerea; assay type: cell-based; settings: comparative example, 405 nm 9 days after inoculation
[2] = test system: Leptosphaeria nodorum; assay: Microtiterplate test against wheat leaf spots caused by Leptosphaeria nodorum; assay type: cell-based; settings: comparative example, 405 nm 9 days after inoculation

Row | SMILES | Growth (%) at 31 ppm [1] [%] | Growth (%) at 31 ppm [2] [%]
1 | CCOC(C)c1c(F)cccc1Oc1cnc(C)c(C)c1 (stereo not shown) [Example I-16] | 34 | 40
2 | COC(C)c1c(F)cccc1Oc1cnc(C)c(C)c1 (stereo not shown) [State of the art] | 58 | 68
